# Experimental data taken from patent publication US8541588B2, “Sulfonamide derivatives” (Pfizer Limited, priority 2009, dated 2013).
# Target: T1, Nav1.7 (or SCN9A) channel; HEK cells stably transfected with hSCN9A (Homo sapiens, UniProt Q15858)
# T1 construct: expressed in transfected cells
# Experiment: Nav1.7 block, PatchXpress 7000 automated whole-cell voltage clamp, estimated IC50 (EIC50)
# Format: cell-based
# Details: estimated IC50; hSCN9A HEK cells, PatchXpress platform; Examples 283-814
# T1 sequence (Q15858 whole entry): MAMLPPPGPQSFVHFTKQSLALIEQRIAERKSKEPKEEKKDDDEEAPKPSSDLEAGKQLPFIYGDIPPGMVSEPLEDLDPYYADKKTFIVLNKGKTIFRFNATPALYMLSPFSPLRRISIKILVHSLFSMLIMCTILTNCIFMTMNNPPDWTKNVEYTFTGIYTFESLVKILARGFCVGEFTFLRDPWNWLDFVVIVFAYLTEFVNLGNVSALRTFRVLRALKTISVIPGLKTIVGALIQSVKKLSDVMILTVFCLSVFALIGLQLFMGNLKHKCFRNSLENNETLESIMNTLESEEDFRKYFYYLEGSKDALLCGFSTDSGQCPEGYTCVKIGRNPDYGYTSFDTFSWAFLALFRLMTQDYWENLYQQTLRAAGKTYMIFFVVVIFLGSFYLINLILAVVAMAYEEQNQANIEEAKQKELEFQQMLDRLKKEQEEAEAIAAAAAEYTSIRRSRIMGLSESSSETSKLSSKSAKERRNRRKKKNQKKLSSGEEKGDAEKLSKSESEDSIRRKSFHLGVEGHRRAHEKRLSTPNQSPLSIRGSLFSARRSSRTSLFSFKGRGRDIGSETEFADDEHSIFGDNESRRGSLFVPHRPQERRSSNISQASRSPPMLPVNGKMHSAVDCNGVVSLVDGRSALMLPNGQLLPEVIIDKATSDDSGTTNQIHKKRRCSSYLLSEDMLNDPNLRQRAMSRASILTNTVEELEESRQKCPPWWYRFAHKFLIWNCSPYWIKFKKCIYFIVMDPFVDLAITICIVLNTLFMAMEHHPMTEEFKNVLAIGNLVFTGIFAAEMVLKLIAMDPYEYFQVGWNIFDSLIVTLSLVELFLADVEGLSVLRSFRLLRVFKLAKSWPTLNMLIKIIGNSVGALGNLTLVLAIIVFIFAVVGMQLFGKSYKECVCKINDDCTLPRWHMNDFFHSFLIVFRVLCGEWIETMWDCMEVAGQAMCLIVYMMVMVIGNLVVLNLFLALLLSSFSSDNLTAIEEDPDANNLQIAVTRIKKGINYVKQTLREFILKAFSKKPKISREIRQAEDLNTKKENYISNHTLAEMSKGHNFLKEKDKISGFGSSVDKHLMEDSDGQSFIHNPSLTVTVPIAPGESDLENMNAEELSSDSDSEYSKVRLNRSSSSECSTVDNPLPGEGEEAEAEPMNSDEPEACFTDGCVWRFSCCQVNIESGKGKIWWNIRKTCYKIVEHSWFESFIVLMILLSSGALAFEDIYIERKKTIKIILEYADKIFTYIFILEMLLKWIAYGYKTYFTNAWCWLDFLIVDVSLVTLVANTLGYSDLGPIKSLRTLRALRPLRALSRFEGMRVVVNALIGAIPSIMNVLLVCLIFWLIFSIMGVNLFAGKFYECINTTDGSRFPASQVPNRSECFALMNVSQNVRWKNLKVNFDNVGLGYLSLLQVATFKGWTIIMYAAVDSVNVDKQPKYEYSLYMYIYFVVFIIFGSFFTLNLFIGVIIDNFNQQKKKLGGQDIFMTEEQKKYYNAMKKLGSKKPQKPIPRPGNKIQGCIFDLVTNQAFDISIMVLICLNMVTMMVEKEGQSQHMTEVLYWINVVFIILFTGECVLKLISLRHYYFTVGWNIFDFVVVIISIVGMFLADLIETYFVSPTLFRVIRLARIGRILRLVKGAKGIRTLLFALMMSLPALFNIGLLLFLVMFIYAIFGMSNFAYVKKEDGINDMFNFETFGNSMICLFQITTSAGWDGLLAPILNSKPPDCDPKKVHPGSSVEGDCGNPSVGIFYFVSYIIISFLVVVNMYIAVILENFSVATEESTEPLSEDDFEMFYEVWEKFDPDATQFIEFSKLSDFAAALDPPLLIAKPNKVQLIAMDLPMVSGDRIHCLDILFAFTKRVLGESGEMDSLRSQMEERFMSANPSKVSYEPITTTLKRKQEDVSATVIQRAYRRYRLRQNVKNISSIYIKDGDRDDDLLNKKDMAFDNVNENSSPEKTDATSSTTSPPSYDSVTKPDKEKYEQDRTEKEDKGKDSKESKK
row,SMILES,IC50 [nM]
1,"O=S(=O)(Nc1cscn1)c1cc(Cl)c(Oc2cc(C(F)(F)F)ccc2-c2cccc(CO)c2)cc1F [Example 663, 5-chloro-2-fluoro-4-{[3′-(hydroxymethyl)-4-(trifluoromethyl)biphenyl-2-yl]oxy}-N-1,3-thiazol-4-ylbenzenesulfonamide]",130
2,"N#Cc1cc(S(=O)(=O)Nc2ncns2)ccc1Oc1ccc(-c2nc(CO)co2)cc1 [Example 665, 3-Cyano-4-{4-[4-(hydroxymethyl)-1,3-oxazol-2-yl]phenoxy}-N-1,2,4-thiadiazol-5-ylbenzenesulfonamide]",>1000
3,"O=S(=O)(Nc1ccc(F)cn1)c1cc(F)c(Oc2ccc(C(F)(F)F)cc2C2CCNCC2)cc1F [Example 666, 2,5-Difluoro-N-(5-fluoropyridin-2-yl)-4-[2-piperidin-4-yl-4-(trifluoromethyl)phenoxy]benzenesulfonamide]",270
4,"Cn1nccc1-c1cc(Cl)ccc1Oc1ccc(S(=O)(=O)Nc2ncc(F)cc2F)cc1F [Example 667, 4-[4-chloro-2-(1-methyl-1H-pyrazol-5-yl)phenoxy]-N-(3,5-difluoropyridin-2-yl)-3-fluorobenzenesulfonamide]",3100
5,"Cn1nccc1-c1cc(Cl)ccc1Oc1ccc(S(=O)(=O)Nc2ccncn2)cc1Cl [Example 668, 3-Chloro-4-[4-chloro-2-(1-methyl-1H-pyrazol-5-yl)phenoxy]-N-pyrimidin-4-ylbenzenesulfonamide]",53
6,"Cn1nccc1-c1cc(F)ccc1Oc1ccc(S(=O)(=O)Nc2ccncn2)cc1Cl [Example 669, 3-Chloro-4-[4-fluoro-2-(1-methyl-1H-pyrazol-5-yl)phenoxy]-N-pyrimidin-4-ylbenzenesulfonamide]",200
7,"Cn1nccc1-c1cc(Cl)ccc1Oc1ccc(S(=O)(=O)Nc2ccncn2)cc1F [Example 670, 4-[4-Chloro-2-(1-methyl-1H-pyrazol-5-yl)phenoxy]-3-fluoro-N-pyrimidin-4-ylbenzenesulfonamide]",350
8,"N#Cc1cc(S(=O)(=O)Nc2ncns2)ccc1Oc1ccc(C(F)(F)F)cc1-c1cnccn1 [Example 671, 3-cyano-4-[2-pyrazin-2-yl-4-(trifluoromethyl)phenoxy]-N-1,2,4-thiadiazol-5-ylbenzenesulfonamide]",260
9,"O=S(=O)(Nc1cscn1)c1ccc(Oc2ccc(Cl)cc2-c2cn[nH]c2)cc1 [Example 672, 4-[4-chloro-2-(1H-pyrazol-4-yl)phenoxy]-N-1,3-thiazol-4-ylbenzenesulfonamide]",2500
10,"O=S(=O)(Nc1cscn1)c1ccc(Oc2ccc(Cl)cc2-c2cn[nH]c2)c(Cl)c1 [Example 673, 3-chloro-4-[4-chloro-2-(1H-pyrazol-4-yl)phenoxy]-N-1,3-thiazol-4-ylbenzenesulfonamide]",690
11,"O=S(=O)(Nc1ncc(F)s1)c1ccc(Oc2ccc(Cl)cc2-c2cn[nH]c2)c(F)c1 [Example 674, 4-[4-chloro-2-(1H-pyrazol-4-yl)phenoxy]-3-fluoro-N-(5-fluoro-1,3-thiazol-2-yl)benzenesulfonamide]",88
12,"Cn1nccc1-c1cc(F)ccc1Oc1c(F)cc(S(=O)(=O)Nc2ncns2)cc1C#N [Example 675, 3-cyano-5-fluoro-4-[4-fluoro-2-(1-methyl-1H-pyrazol-5-yl)phenoxy]-N-1,2,4-thiadiazol-5-ylbenzenesulfonamide]",370
13,"N#Cc1cc(S(=O)(=O)Nc2ncns2)cc(F)c1Oc1ccc(Cl)cc1-c1cn[nH]c1 [Example 676, 4-[4-chloro-2-(1H-pyrazol-4-yl)phenoxy]-3-cyano-5-fluoro-N-1,2,4-thiadiazol-5-ylbenzenesulfonamide]",190
14,"O=S(=O)(Nc1nccs1)c1cc(F)c(Oc2ccc(OC(F)(F)F)cc2-c2cn[nH]c2)cc1F [Example 677, 2,5-difluoro-4-[2-(1H-pyrazol-4-yl)-4-(trifluoromethoxy)phenoxy]-N-1,3-thiazol-2-ylbenzenesulfonamide]",12
